Measurements from patent US20180042943A1, “METHODS FOR MODULATING BONE DENSITY” (Intercept Pharmaceuticals, Inc., priority 2015, published 2018).
Entries after “also recorded” stand apart in the source; their conditions may differ.

How the values were obtained:
[1] = DEXA scan of the femoral neck (T-score, Z-score, BMD) in PBC subjects, 12 months OCA or placebo; assay type: in vivo, human; conditions: for Femoral Neck Scan: Bone Mineral Density, Change From Baseline, Mean / Femoral Neck Scan: Bone Mineral Density, Change From Baseline, Median / Femoral Neck Scan: Bone Mineral Density, Result, Mean / Femoral Neck Scan: Bone Mineral Density, Result, Median / Femoral Neck Scan: T-Score, Change From Baseline, Mean / Femoral Neck Scan: T-Score, Change From Baseline, Median / Femoral Neck Scan: T-Score, Result, Mean / Femoral Neck Scan: T-Score, Result, Median / Femoral Neck Scan: Z-Score, Change From Baseline, Mean / Femoral Neck Scan: Z-Score, Change From Baseline, Median / Femoral Neck Scan: Z-Score, Result, Mean / Femoral Neck Scan: Z-Score, Result, Median / Femoral Neck Scan: Bone Mineral Density, Change From Baseline, LS Mean / Femoral Neck Scan: Bone Mineral Density, Change From Baseline, OCA - Placebo mean difference / Femoral Neck Scan: T-Score, Change From Baseline, LS Mean / Femoral Neck Scan: T-Score, Change From Baseline, OCA - Placebo mean difference / Femoral Neck Scan: Z-Score, Change From Baseline, LS Mean / Femoral Neck Scan: Z-Score, Change From Baseline, OCA - Placebo mean difference: orally once daily, DB Month 12, subjects with PBC; for Femoral Neck Scan: Bone Mineral Density, Change From Baseline, LS Mean / Femoral Neck Scan: Bone Mineral Density, Change From Baseline, OCA - Placebo mean difference / Femoral Neck Scan: T-Score, Change From Baseline, LS Mean / Femoral Neck Scan: T-Score, Change From Baseline, OCA - Placebo mean difference / Femoral Neck Scan: Z-Score, Change From Baseline, LS Mean / Femoral Neck Scan: Z-Score, Change From Baseline, OCA - Placebo mean difference: ANCOVA
Experimental: (§1) PBC patients are randomized to three groups: (a) placebo (PCB), (b) 10 mg OCA, or (c) 5 mg (month 0-6) titrating to 10 mg (month 7-12) OCA. Study medication is administered orally, once daily for 12 months. For patients under pretreatment ursodeoxycholic acid (UDCA) treatment, the pre-treatment dose of UDCA is continued throughout their treatment. Bone density is measured by DEXA scans. DEXA scans of the lumbar spine and femoral neck are conducted at Day 0 and Month 12. Additional measurement may be conducted after Month 12 (e.g., annually after Month 12) as necessary and appropriate. The timing of the DEXA scans is not critical, and may be conducted±2 weeks. […] Subjects with PBC±UDCA (if taking UDCA, patients were maintained on a stable dose) with ALP≧1.67×ULN or bilirubin<2×ULN were randomized to placebo (PBO), OCA 5 or 10 mg for 12 months. Subjects on 5 mg were titrated to 10 mg after 6 months (OCA Titration) based on clinical response and tolerability. Dual-emission X-ray absorptiometry (DEXA) scan was used to assess BMD in a subset of subjects prior to and following 12 months of OCA or placebo treatment. Changes from baseline at Month 12 were analyzed using an ANCOVA model with baseline values as a covariate. Osteopenia and osteoporosis were based on WHO thresholds: T score −1.0 to ≦−2.5 […].

[2] = DEXA scan of the lumbar spine (T-score, Z-score, BMD) in PBC subjects, 12 months OCA or placebo; assay type: in vivo, human; conditions: for Lumbar Spine Scan: Bone Mineral Density, Change From Baseline, Mean / Lumbar Spine Scan: Bone Mineral Density, Change From Baseline, Median / Lumbar Spine Scan: Bone Mineral Density, Result, Mean / Lumbar Spine Scan: Bone Mineral Density, Result, Median / Lumbar Spine Scan: T-Score, Change From Baseline, Mean / Lumbar Spine Scan: T-Score, Change From Baseline, Median / Lumbar Spine Scan: T-Score, Result, Mean / Lumbar Spine Scan: T-Score, Result, Median / Lumbar Spine Scan: Z-Score, Change From Baseline, Mean / Lumbar Spine Scan: Z-Score, Change From Baseline, Median / Lumbar Spine Scan: Z-Score, Result, Mean / Lumbar Spine Scan: Z-Score, Result, Median / Lumbar Spine Scan: Bone Mineral Density, Change From Baseline, LS Mean / Lumbar Spine Scan: Bone Mineral Density, Change From Baseline, OCA - Placebo mean difference / Lumbar Spine Scan: T-Score, Change From Baseline, LS Mean / Lumbar Spine Scan: T-Score, Change From Baseline, OCA - Placebo mean difference / Lumbar Spine Scan: Z-Score, Change From Baseline, LS Mean / Lumbar Spine Scan: Z-Score, Change From Baseline, OCA - Placebo mean difference: orally once daily, DB Month 12, subjects with PBC; for Lumbar Spine Scan: Bone Mineral Density, Change From Baseline, LS Mean / Lumbar Spine Scan: Bone Mineral Density, Change From Baseline, OCA - Placebo mean difference / Lumbar Spine Scan: T-Score, Change From Baseline, LS Mean / Lumbar Spine Scan: T-Score, Change From Baseline, OCA - Placebo mean difference / Lumbar Spine Scan: Z-Score, Change From Baseline, LS Mean / Lumbar Spine Scan: Z-Score, Change From Baseline, OCA - Placebo mean difference: ANCOVA
Experimental: as §1

[3] = Titration OCA (5 mg, titrated to 10 mg after 6 months)

For `CC[C@H]1[C@@H](O)[C@@H]2[C@H](CC[C@]3(C)[C@@H]([C@H](C)CCC(=O)O)CC[C@@H]23)[C@@]2(C)CC[C@@H](O)C[C@@H]12` [OCA, 3α,7α-dihydroxy-6α-ethyl-5β-cholan-24-oic acid], the “Femoral Neck Scan: Bone Mineral Density, Change From Baseline, Mean” value ([1]; 10 mg OCA) was −0.034 g/cm^2, the “Femoral Neck Scan: Bone Mineral Density, Change From Baseline, Median” value ([1]; 10 mg OCA) was −0.018 g/cm^2 and the “Femoral Neck Scan: Bone Mineral Density, Result, Mean” value ([1]; 10 mg OCA) was 0.813 g/cm^2. The “Femoral Neck Scan: Bone Mineral Density, Result, Median” value ([1]; 10 mg OCA) was 0.779 g/cm^2, the “Femoral Neck Scan: T-Score, Change From Baseline, Mean” value ([1]; 10 mg OCA) was −0.11 and the “Femoral Neck Scan: T-Score, Change From Baseline, Median” value ([1]; 10 mg OCA) was −0.10. For the same compound, the “Femoral Neck Scan: T-Score, Result, Mean” value ([1]; 10 mg OCA) was −1.06, the “Femoral Neck Scan: T-Score, Result, Median” value ([1]; 10 mg OCA) was −1.05 and the “Femoral Neck Scan: Z-Score, Change From Baseline, Mean” value ([1]; 10 mg OCA) was −0.06. For the same compound, the “Femoral Neck Scan: Z-Score, Change From Baseline, Median” value ([1]; 10 mg OCA) was 0.00, the “Femoral Neck Scan: Z-Score, Result, Mean” value ([1]; 10 mg OCA) was −0.01 and the “Femoral Neck Scan: Z-Score, Result, Median” value ([1]; 10 mg OCA) was −0.10. For the same compound, the “Femoral Neck Scan: Bone Mineral Density, Change From Baseline, LS Mean” value ([1]; 10 mg OCA) was −0.04 g/cm^2, the “Femoral Neck Scan: Bone Mineral Density, Change From Baseline, OCA - Placebo mean difference” value ([1]; 10 mg OCA) was −0.02 g/cm^2 and the “Femoral Neck Scan: T-Score, Change From Baseline, LS Mean” value ([1]; 10 mg OCA) was −0.07. The “Femoral Neck Scan: T-Score, Change From Baseline, OCA - Placebo mean difference” value ([1]; 10 mg OCA) was 0.26, the “Femoral Neck Scan: Z-Score, Change From Baseline, LS Mean” value ([1]; 10 mg OCA) was −0.07 and the “Femoral Neck Scan: Z-Score, Change From Baseline, OCA - Placebo mean difference” value ([1]; 10 mg OCA) was 0.05. For the same compound, the “Femoral Neck Scan: Bone Mineral Density, Change From Baseline, Mean” value [1, 3] was −0.003 g/cm^2, the “Femoral Neck Scan: Bone Mineral Density, Change From Baseline, Median” value [1, 3] was −0.004 g/cm^2 and the “Femoral Neck Scan: Bone Mineral Density, Result, Mean” value [1, 3] was 0.809 g/cm^2. The “Femoral Neck Scan: Bone Mineral Density, Result, Median” value [1, 3] was 0.822 g/cm^2, the “Femoral Neck Scan: T-Score, Change From Baseline, Mean” value [1, 3] was −0.03 and the “Femoral Neck Scan: T-Score, Change From Baseline, Median” value [1, 3] was −0.05. For the same compound, the “Femoral Neck Scan: T-Score, Result, Mean” value [1, 3] was −1.28, the “Femoral Neck Scan: T-Score, Result, Median” value [1, 3] was −1.45 and the “Femoral Neck Scan: Z-Score, Change From Baseline, Mean” value [1, 3] was 0.01. The “Femoral Neck Scan: Z-Score, Change From Baseline, Median” value [1, 3] was 0.00, the “Femoral Neck Scan: Z-Score, Result, Mean” value [1, 3] was −0.23 and the “Femoral Neck Scan: Z-Score, Result, Median” value [1, 3] was −0.45. For the same compound, the “Femoral Neck Scan: Bone Mineral Density, Change From Baseline, LS Mean” value [1, 3] was −0.01 g/cm^2, the “Femoral Neck Scan: Bone Mineral Density, Change From Baseline, OCA - Placebo mean difference” value [1, 3] was 0.01 g/cm^2 and the “Femoral Neck Scan: T-Score, Change From Baseline, LS Mean” value [1, 3] was −0.06. The “Femoral Neck Scan: T-Score, Change From Baseline, OCA - Placebo mean difference” value [1, 3] was 0.27, the “Femoral Neck Scan: Z-Score, Change From Baseline, LS Mean” value [1, 3] was −0.01 and the “Femoral Neck Scan: Z-Score, Change From Baseline, OCA - Placebo mean difference” value [1, 3] was 0.10. The “decrease in femoral bone mineral density T-score versus placebo” value ([1]; both OCA groups, Baseline to Month 12, subjects with PBC, p<0.05) was “smaller decrease”, the “Lumbar Spine Scan: Bone Mineral Density, Change From Baseline, Mean” value ([2]; 10 mg OCA) was −0.012 g/cm^2 and the “Lumbar Spine Scan: Bone Mineral Density, Change From Baseline, Median” value ([2]; 10 mg OCA) was −0.013 g/cm^2. For the same compound, the “Lumbar Spine Scan: Bone Mineral Density, Result, Mean” value ([2]; 10 mg OCA) was 1.003 g/cm^2, the “Lumbar Spine Scan: Bone Mineral Density, Result, Median” value ([2]; 10 mg OCA) was 0.976 g/cm^2 and the “Lumbar Spine Scan: T-Score, Change From Baseline, Mean” value ([2]; 10 mg OCA) was −0.17. For the same compound, the “Lumbar Spine Scan: T-Score, Change From Baseline, Median” value ([2]; 10 mg OCA) was −0.10, the “Lumbar Spine Scan: T-Score, Result, Mean” value ([2]; 10 mg OCA) was −1.02 and the “Lumbar Spine Scan: T-Score, Result, Median” value ([2]; 10 mg OCA) was −1.20. For the same compound, the “Lumbar Spine Scan: Z-Score, Change From Baseline, Mean” value ([2]; 10 mg OCA) was −0.03, the “Lumbar Spine Scan: Z-Score, Change From Baseline, Median” value ([2]; 10 mg OCA) was 0.00 and the “Lumbar Spine Scan: Z-Score, Result, Mean” value ([2]; 10 mg OCA) was 0.01. The “Lumbar Spine Scan: Z-Score, Result, Median” value ([2]; 10 mg OCA) was 0.00, the “Lumbar Spine Scan: Bone Mineral Density, Change From Baseline, LS Mean” value ([2]; 10 mg OCA) was −0.01 g/cm^2 and the “Lumbar Spine Scan: Bone Mineral Density, Change From Baseline, OCA - Placebo mean difference” value ([2]; 10 mg OCA) was 0.00 g/cm^2. For the same compound, the “Lumbar Spine Scan: T-Score, Change From Baseline, LS Mean” value ([2]; 10 mg OCA) was −0.09, the “Lumbar Spine Scan: T-Score, Change From Baseline, OCA - Placebo mean difference” value ([2]; 10 mg OCA) was 0.16 and the “Lumbar Spine Scan: Z-Score, Change From Baseline, LS Mean” value ([2]; 10 mg OCA) was −0.03. The “Lumbar Spine Scan: Z-Score, Change From Baseline, OCA - Placebo mean difference” value ([2]; 10 mg OCA) was −0.05, the “Lumbar Spine Scan: Bone Mineral Density, Change From Baseline, Mean” value [2, 3] was −0.014 g/cm^2 and the “Lumbar Spine Scan: Bone Mineral Density, Change From Baseline, Median” value [2, 3] was −0.007 g/cm^2. For the same compound, the “Lumbar Spine Scan: Bone Mineral Density, Result, Mean” value [2, 3] was 1.013 g/cm^2, the “Lumbar Spine Scan: Bone Mineral Density, Result, Median” value [2, 3] was 0.994 g/cm^2 and the “Lumbar Spine Scan: T-Score, Change From Baseline, Mean” value [2, 3] was −0.06. The “Lumbar Spine Scan: T-Score, Change From Baseline, Median” value [2, 3] was 0.00, the “Lumbar Spine Scan: T-Score, Result, Mean” value [2, 3] was −1.10 and the “Lumbar Spine Scan: T-Score, Result, Median” value [2, 3] was −1.35. The “Lumbar Spine Scan: Z-Score, Change From Baseline, Mean” value [2, 3] was 0.00, the “Lumbar Spine Scan: Z-Score, Change From Baseline, Median” value [2, 3] was 0.00 and the “Lumbar Spine Scan: Z-Score, Result, Mean” value [2, 3] was 0.02. The “Lumbar Spine Scan: Z-Score, Result, Median” value [2, 3] was −0.20, the “Lumbar Spine Scan: Bone Mineral Density, Change From Baseline, LS Mean” value [2, 3] was −0.01 g/cm^2 and the “Lumbar Spine Scan: Bone Mineral Density, Change From Baseline, OCA - Placebo mean difference” value [2, 3] was −0.01 g/cm^2. The “Lumbar Spine Scan: T-Score, Change From Baseline, LS Mean” value [2, 3] was −0.01, the “Lumbar Spine Scan: T-Score, Change From Baseline, OCA - Placebo mean difference” value [2, 3] was 0.25 and the “Lumbar Spine Scan: Z-Score, Change From Baseline, LS Mean” value [2, 3] was 0.00. For the same compound, the “Lumbar Spine Scan: Z-Score, Change From Baseline, OCA - Placebo mean difference” value [2, 3] was −0.01 and the “Lumbar bone mineral density change, OCA groups versus placebo” value ([2]; both OCA groups, Baseline to Month 12, subjects with PBC) was “No significant difference; also recorded: not significant”.
